{
  "source": "patent US5719151A",
  "about": "“Substituted benzene compounds” (priority 1990, dated 1998)",
  "key": {"[1]": {"system": "Trypanosoma brucei rhodesiense", "assay": "Growth of Trypanosoma brucei rhodesiense in axenic culture (growth inhibition)", "type": "cell-based", "experimental": "(§1) 1. TRYPANOSOMES: Stabilates of two clones, GUP 2889 and GUP 2814 were used.\nPrior to propagation in vitro cell free culture conditions the parasites from stabilates were expanded in CD1 (8-9 week old) female mice. Infected mouse blood obtained by cardiac puncture in EMEM* with 20 U/ml heparin was used for the preparation of blood smears for immunofluorescence analysis.\n(§2) Antibody mediated lysis of a specific VAT of bloodstream form trypanosomes was performed by incubating an appropriate aliquot of a recently prepared trypanosome suspension at room temperature for 1 hour, in appropriately diluted specific antibody and guinea pig complement. The trypanosomes were observed and counted with inverted phase-contrast microscopy at a magnification of 150× to check for viability and to observe lysed trypanosomes, which appeared stumpy and vacuolated.\n(§3) Cultures were initiated with aliquots of the above prepared trypanosome suspension. Duplicate T25 flasks, with 10 ml of medium were prepared for each experimental parameter examined. In each experiment the trypanosome density was determined at the initiation of the culture and at the end of the axenic culture period (usually after 18-24 hours) using a Neubaurer haemocytometer.\n(§4) The instantaneous rate of switching/cell/generation, σi, has been calculated. These values of σ are estimates of the per capita rate for switching to minor VATs. However, these estimates have been made in populations manipulated to consist of a major VAT, the prevalence of which is much higher than that of minor VATs; switching from minor to major VATs has therefore been assumed to be negligible, as has interswitching between minor VATs. Growth rates, r, have been expressed as population doubling times Td, where Td=loge2/r. Switching rates values are presented in the tables as finite, of, rate estimates.\nTwo clones of Trypanosoma brucei rhodesiense, GUP 2889 and […] were initiated in culture with viable trypanosomes after in vitro trypanolysis of heterotype VAT 1.22 with GUPM 27.1 monoclonal antibody. Viable populations of these trypanosomes were incubated with various concentrations of the poly(ADP-Ribose)polymerase inhibitors. The effect of each concentration of inhibitor was tested in duplicate in T25 culture flasks set up for the axenic culture inhibition experiments. Growth was monitored after 24 hours of incubation at 37° C. in 4-5% CO2 in air. Relative growth inhibition and frequency of antigenic switching of were calculated.\nIn this assay a continuously growing bloodstream form trypanosome population was incubated in serial inhibitor dilutions in T25 culture flasks using an inoculum of 2×10^4 ·1×10^5 trypanosomes per ml. After an incubation period of 24-48 hours in axenic culture at 37° C. in a 4-5% CO2 incubator, trypanosomes were counted using a haemocytometer and growth inhibition was determined based on the number of generations (kt) of inhibitor treated cultures compared to controls. […] Growth is reduced by up to 17% when 3-N-formylluminol(3-N-FL) is present in the concentration range of 50-400 μM, Table 7."}, "[2]": {"system": "Trypanosoma brucei rhodesiense (GUP 2814)", "assay": "Antigenic switching in Trypanosoma brucei rhodesiense (GUP 2814) in axenic culture, ILTat 1.63 to ILTat 1.22", "type": "cell-based", "experimental": "as §1\nSpecific rabbit antisera and ascites fluid against specific Variable Antigen Types were used for trypanolysis and immunofluorescence at the appropriate dilutions.\nas §2, §3\nThe prevalences of VATs in each cultures population were determined using immunofluorescence as follows: contents of one of the duplicate flasks (or both) were transferred to a universal bottle, and the trypanosomes were sedimented by centrifugation at 3,000 rpm at room temperature in a bench-top MSE centrifuge. The trypanosomes were resuspended in 10 μl of 20%(v/v) FCS supplemented EMEM* medium. Samples of this suspension were applied as smears to clean microscope slides coated with 0.1% poly-L-Lysine for immunofluorescence (IF) analysis for the frequency of specific VATs. Prevalence estimates of VATs were based on counts of more than 1000 labeled trypanosomes per flask.\nIndirect immunofluorescence on acetone-fixed trypanosomes on slides was performed essentially according to the method of van Meirvenne et al., (Ann. Soc. Belge Med. Trop. (1975) 55: 1-23), using appropriately diluted rabbit antiserum or undiluted monoclonal lantibodies derived from hybridoma culture supernatants. Trypanosomes were visualized with fluorescein isothiocyanate(FITC)-labeled conjugated anti rabbit-FITC antibodies (Sigma:No.F-0382) for VAT 1.22 and 1.3, and with anti-mouse-FITC (Sigma:No.F-0257) for VATs 1.64c, 1.63a and 1.61. These secondary antibodies were diluted in PBS (pH8.0) and also contained Evans Blue (1:10,000 w/v) and Ethidium Bromide (5 μg/ml) as a counterstain.\nEstimates of the prevalence of particular trypanosome VATs were based on counts of at least 200 trypanosomes, and at least 1000 trypanosomes were counted if the frequency of positive organisms were very low.\nThe rate of switching was estimated essentially as described by Turner and Barry (Parasitology (1989) 99: 67-75). Briefly, the size of the trypanosome population expressing aminor VAT was calculated at the time points […] as Nt1 and Nt2 respectively, from the mean total population density and from the prevalence of that VAT in the population.\nas §4\nTwo clones of Trypanosoma brucei rhodesiense, GUP 2889 and […] were initiated in culture with viable trypanosomes after in vitro trypanolysis of heterotype VAT 1.22 with GUPM 27.1 monoclonal antibody. Viable populations of these trypanosomes were incubated with various concentrations of the poly(ADP-Ribose)polymerase inhibitors. […]"}, "[3]": {"molecular_target": "poly(ADP-ribose)polymerase (Homo sapiens, UniProt P09874)", "sequence (P09874 whole entry)": "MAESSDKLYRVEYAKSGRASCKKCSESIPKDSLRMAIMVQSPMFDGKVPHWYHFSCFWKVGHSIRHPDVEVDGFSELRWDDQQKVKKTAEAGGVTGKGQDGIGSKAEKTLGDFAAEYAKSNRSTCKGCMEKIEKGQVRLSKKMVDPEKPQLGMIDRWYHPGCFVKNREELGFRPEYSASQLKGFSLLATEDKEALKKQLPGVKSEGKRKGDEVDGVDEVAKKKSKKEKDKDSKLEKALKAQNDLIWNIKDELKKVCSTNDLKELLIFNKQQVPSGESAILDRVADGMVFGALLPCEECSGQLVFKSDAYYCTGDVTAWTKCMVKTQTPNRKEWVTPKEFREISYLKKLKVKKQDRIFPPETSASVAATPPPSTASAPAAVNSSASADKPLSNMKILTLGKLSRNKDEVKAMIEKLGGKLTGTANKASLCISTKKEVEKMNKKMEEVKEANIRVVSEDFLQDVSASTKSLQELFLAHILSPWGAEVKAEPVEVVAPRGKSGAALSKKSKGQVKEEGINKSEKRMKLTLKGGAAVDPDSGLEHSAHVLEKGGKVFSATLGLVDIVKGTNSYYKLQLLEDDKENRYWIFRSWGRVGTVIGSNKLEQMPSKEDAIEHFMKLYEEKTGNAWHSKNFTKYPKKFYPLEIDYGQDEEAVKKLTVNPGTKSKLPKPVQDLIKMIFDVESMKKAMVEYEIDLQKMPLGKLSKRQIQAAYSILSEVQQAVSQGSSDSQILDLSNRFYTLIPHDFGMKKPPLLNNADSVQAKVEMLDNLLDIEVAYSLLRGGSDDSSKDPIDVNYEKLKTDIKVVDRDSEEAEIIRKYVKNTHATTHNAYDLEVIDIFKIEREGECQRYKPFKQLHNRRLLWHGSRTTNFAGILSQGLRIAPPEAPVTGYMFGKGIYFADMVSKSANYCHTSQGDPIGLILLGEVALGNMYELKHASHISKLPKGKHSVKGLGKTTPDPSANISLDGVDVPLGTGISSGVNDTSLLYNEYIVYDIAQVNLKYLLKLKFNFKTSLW", "assay": "Determination of inhibitory effect on poly(ADP-ribose)polymerase (enzyme activity, Ki, Km)", "type": "biochemical", "experimental": "The enzyme activity was assayed by standard procedures (Murray, B. et al., Mutation Research (1986) 165:191-198). This reference also describes the estimation of the Km (Michaelis Constant) values. The estimation of the Ki (inhibitory constant) values was performed by calculating the Km value in the presence or absence of known concentrations of the enzyme inhibitor. Standard biochemical calculations were then used to calculate the Ki value. The smaller K1 values indicate stronger inhibition. The degree of enzyme inhibition shown in the Table was estimated by measuring the enzyme activity in the presence and absence of the indicated concentrations of inhibitor."}},
  "note": "Read-outs that look alike come from different tables or passages of the source.",
  "data": [
    {"smiles": "NC(=O)c1cccc(NC=O)c1", "note": "[Compound 1, 3-formylaminobenzamide]", "values": [
      {"measurement": "reduction in growth rate", "setting": "[1]; 0.5 to 2.0 mM", "value": 7, "unit": "%"},
      {"measurement": "kt (generation number)", "setting": "[1]; GUP 2814, DHS/EMEM, 1.0 mM, control 2.44", "value": 2.29, "unit": "doublings"},
      {"measurement": "kt (generation number)", "setting": "[1]; GUP 2814, ES/EMEM (first experiment), 1.0 mM, control 2.02", "value": 1.56, "unit": "doublings"},
      {"measurement": "kt (generation number)", "setting": "[1]; GUP 2814, ES/EMEM (second experiment), 1.0 mM, control 2.36", "value": 2.14, "unit": "doublings"},
      {"measurement": "kt (generation number)", "setting": "[1]; GUP 2814, ES/EMEM, 0.5 mM, control 1.95", "value": 2.09, "unit": "doublings"},
      {"measurement": "kt (generation number)", "setting": "[1]; GUP 2814, FCS/EMEM, 1.0 mM, control 2.143", "value": 1.92, "unit": "doublings"},
      {"measurement": "activity at 500 µM", "setting": "[1]; Trypanosoma brucei, RHODESIENSE, 0.5 mM, n = 6, control 1.00, read-out: Relative Growth Rate (S.D., n)", "value": "105 ± 13", "unit": "%"},
      {"measurement": "activity at 1000 µM", "setting": "[1]; Trypanosoma brucei, RHODESIENSE, 1.0 mM, n = 11, control 1.00, read-out: Relative Growth Rate (S.D., n)", "value": "103 ± 23", "unit": "%"},
      {"measurement": "activity at 2000 µM", "setting": "[1]; Trypanosoma brucei, RHODESIENSE, 2.0 mM, n = 6, control 1.00, read-out: Relative Growth Rate (S.D., n)", "value": "93 ± 22", "unit": "%"},
      {"measurement": "activity at 1000 µM", "setting": "[1]; Trypanosoma brucei, RHODESIENSE, GUP 2814, DHS/EMEM, 1.0 mM, control 100, read-out: Relative Growth", "value": 93.9, "unit": "%"},
      {"measurement": "activity at 1000 µM", "setting": "[1]; Trypanosoma brucei, RHODESIENSE, GUP 2814, ES/EMEM (first experiment), 1.0 mM, control 100, read-out: Relative Growth", "value": 77.2, "unit": "%"},
      {"measurement": "activity at 1000 µM", "setting": "[1]; Trypanosoma brucei, RHODESIENSE, GUP 2814, ES/EMEM (second experiment), 1.0 mM, control 100, read-out: Relative Growth", "value": 90.8, "unit": "%"},
      {"measurement": "activity at 500 µM", "setting": "[1]; Trypanosoma brucei, RHODESIENSE, GUP 2814, ES/EMEM, 0.5 mM, control 100, read-out: Relative Growth", "value": 107, "unit": "%"},
      {"measurement": "activity at 1000 µM", "setting": "[1]; Trypanosoma brucei, RHODESIENSE, GUP 2814, FCS/EMEM, 1.0 mM, control 100, read-out: Relative Growth", "value": 89.6, "unit": "%"},
      {"measurement": "switching frequency, from ILTat 1.63 to 1.22", "setting": "[2]; 1 mM, Horse Serum (Bristol), two of three experiments", "value": "reproducible reduction of switching frequency"},
      {"measurement": "σf (finite switch rate per trypanosome per generation)", "setting": "[2]; DHS/EMEM, 1.0 mM, control 210.8", "value": "117.0 x10^-2"},
      {"measurement": "σf (finite switch rate per trypanosome per generation)", "setting": "[2]; ES/EMEM (first experiment), 1.0 mM, control 5.3", "value": "2.26 x10^-2"},
      {"measurement": "σf (finite switch rate per trypanosome per generation)", "setting": "[2]; ES/EMEM (second experiment), 1.0 mM, control 2.17", "value": "0.94 x10^-2"},
      {"measurement": "σf (finite switch rate per trypanosome per generation)", "setting": "[2]; ES/EMEM, 0.5 mM, control 13.65", "value": "0.95 x10^-2"},
      {"measurement": "σf (finite switch rate per trypanosome per generation)", "setting": "[2]; FCS/EMEM, 1.0 mM, control 0.46", "value": "0.72 x10^-2"},
      {"measurement": "activity at 1000 µM", "setting": "[2]; Trypanosoma brucei, RHODESIENSE, read-out: RAS (relative antigenic switching), DHS/EMEM, 1.0 mM, control 100", "value": 55.5, "unit": "%"},
      {"measurement": "activity at 1000 µM", "setting": "[2]; Trypanosoma brucei, RHODESIENSE, read-out: RAS (relative antigenic switching), ES/EMEM (first experiment), 1.0 mM, control 100", "value": 42.6, "unit": "%"},
      {"measurement": "activity at 1000 µM", "setting": "[2]; Trypanosoma brucei, RHODESIENSE, read-out: RAS (relative antigenic switching), ES/EMEM (second experiment), 1.0 mM, control 100", "value": 43.5, "unit": "%"},
      {"measurement": "activity at 500 µM", "setting": "[2]; Trypanosoma brucei, RHODESIENSE, read-out: RAS (relative antigenic switching), ES/EMEM, 0.5 mM, control 100", "value": 7, "unit": "%"},
      {"measurement": "activity at 1000 µM", "setting": "[2]; Trypanosoma brucei, RHODESIENSE, read-out: RAS (relative antigenic switching), FCS/EMEM, 1.0 mM, control 100", "value": 136, "unit": "%"},
      {"measurement": "inhibition at 5 µM", "setting": "[3]; 5.0 μM, read-out: Inhibitor Activity (%)", "value": 66, "unit": "%"},
      {"measurement": "Ki", "setting": "[3]; poly(ADP-ribose)polymerase, read-out: Ki (Inhibition Constant)", "value": "1.61 ± 0.15", "unit": "µM"}
    ]}
  ]
}
